# Laboratory results taken from patent US10385057B2, “Pyrazole compounds and methods of making and using same” (Lundbeck La Jolla Research Center, Inc., priority 2015, dated 2019).
# Tests used:
# FAAH = molecular target: T1, FAAH (Mus musculus, UniProt O08914); test: In vitro competitive activity-based protein profiling, mouse FAAH; assay type: biochemical; conditions: for inhibition at 1 µM: read-out: FAAH % inh. 1 μM (mouse)
# T1 construct: mouse brain membrane fraction or cell lysates for mouse assays; from tissue
# T1 sequence (O08914 1-579): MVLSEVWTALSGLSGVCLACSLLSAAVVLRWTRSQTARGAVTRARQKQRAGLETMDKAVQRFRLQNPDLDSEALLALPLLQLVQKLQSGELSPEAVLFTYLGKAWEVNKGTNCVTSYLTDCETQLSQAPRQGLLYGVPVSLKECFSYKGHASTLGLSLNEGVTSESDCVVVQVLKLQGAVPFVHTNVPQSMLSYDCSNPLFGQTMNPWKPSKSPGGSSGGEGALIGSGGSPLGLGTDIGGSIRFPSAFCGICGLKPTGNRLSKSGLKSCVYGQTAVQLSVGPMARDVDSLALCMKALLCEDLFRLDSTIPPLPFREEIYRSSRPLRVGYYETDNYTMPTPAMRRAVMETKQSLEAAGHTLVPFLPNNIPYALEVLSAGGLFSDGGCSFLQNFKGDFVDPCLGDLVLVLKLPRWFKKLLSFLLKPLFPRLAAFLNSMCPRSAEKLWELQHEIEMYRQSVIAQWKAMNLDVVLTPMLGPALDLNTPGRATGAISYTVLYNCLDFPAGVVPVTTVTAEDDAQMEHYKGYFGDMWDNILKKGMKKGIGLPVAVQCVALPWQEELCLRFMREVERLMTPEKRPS
# Summary of the method: (§1)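 Mouse brain membranes or cell lysates (mouse) and human prefrontal cortex or cell membrane fractions (human), 1.0 mg/mL protein, preincubated with inhibitor 30 min at 37 °C, then FP-Rh or HT-01 probe 30 min at 37 °C. SDS-PAGE; MAGL and FAAH activity from in-gel fluorescence band intensity.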
# MAGL = molecular target: T2, MAGL (Mus musculus, UniProt O35678); test: In vitro competitive activity-based protein profiling, mouse MAGL; assay type: biochemical; conditions: for inhibition at 1 µM: read-out: MAGL % inh. 1 μM (mouse)
# T2 construct: mouse brain membrane fraction or cell lysates for mouse assays; from tissue
# T2 sequence (O35678 1-303): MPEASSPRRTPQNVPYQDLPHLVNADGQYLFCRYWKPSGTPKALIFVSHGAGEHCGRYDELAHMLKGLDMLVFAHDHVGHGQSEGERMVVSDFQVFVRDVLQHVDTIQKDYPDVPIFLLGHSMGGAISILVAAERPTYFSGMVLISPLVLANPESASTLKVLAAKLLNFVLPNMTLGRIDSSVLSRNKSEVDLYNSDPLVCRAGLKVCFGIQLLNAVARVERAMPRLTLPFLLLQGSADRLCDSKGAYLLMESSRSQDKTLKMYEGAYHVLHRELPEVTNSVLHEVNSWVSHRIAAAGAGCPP
# Summary of the method: as §1
SMILES,IC50 (FAAH),inhibition at 1 µM (FAAH),IC50 (MAGL),inhibition at 1 µM (MAGL)
"O=C(N1C[C@H]2C[C@H](NCc3ccc(Cl)cc3)C[C@H]2C1)n1cc(Cl)cn1 [Example 73, (4-chloro-1H-pyrazol-1-yl)(trans-5-((4-chlorobenzyl)amino)hexahydrocyclopenta[c]pyrrol-2(1H)-yl)methanone]",≤ 100 nM,≥ 75%,100 to 1000 nM,≥ 75%
"O=C(c1cnn(C(=O)N2CCC3(CCN(Cc4ccc(N5CCOCC5)cc4C(F)(F)F)C3)C2)c1)N1CCN(C2CC2)CC1 (centres unmarked) [Example 52, (4-cyclopropylpiperazin-1-yl)(1-(7-(4-morpholino-2-(trifluoromethyl)benzyl)-2,7-diazaspiro[4.4]nonane-2-carbonyl)-1H-pyrazol-4-yl)methanone]",,≥ 75%,,≥ 75%
"O=C(c1cnn(C(=O)N2CC3CN(Cc4cccc(Cl)c4)CC3C2)c1)N1CCCCC1 (centres unmarked) [Example 3, (5-(3-chlorobenzyl)hexahydropyrrolo[3,4-c]pyrrol-2(1H)-yl)(4-(piperidine-1-carbonyl)-1H-pyrazol-1-yl)methanone]",100 to 1000 nM,≥ 75%,1000 to 10000 nM,50 to 75%
"CN(Cc1ccc(N2CCOCC2)cc1)[C@@H]1C[C@@H]2CN(C(=O)n3cc(Cl)cn3)C[C@@H]2C1 [Example 77, (4-chloro-1H-pyrazol-1-yl)(cis-5-(methyl(4-morpholinobenzyl)amino)hexahydrocyclopenta[c]pyrrol-2(1H)-yl)methanone]",100 to 1000 nM,≥ 75%,1000 to 10000 nM,50 to 75%
"CN(Cc1ccccc1Cl)[C@@H]1C[C@@H]2CN(C(=O)n3cc(C(=O)N4CCN(C5CC5)CC4)cn3)C[C@@H]2C1 [Example 87, (cis-5-((2-chlorobenzyl)(methyl)amino)hexahydrocyclopenta[c]pyrrol-2(1H)-yl)(4-(4-cyclopropylpiperazine-1-carbonyl)-1H-pyrazol-1-yl)methanone]",,0 to 25%,,25 to 50%
"CC(=O)N1CCN(c2cc(C(C)C)ccc2CN2CC3CN(C(=O)n4cc(Cl)cn4)CC3C2)CC1 (centres unmarked) [Example 109, 1-(4-(2-((5-(4-chloro-1H-pyrazole-1-carbonyl)hexahydropyrrolo[3,4-c]pyrrol-2(1H)-yl)methyl)-5-isopropylphenyl)piperazin-1-yl)ethan-1-one]",1000 to 10000 nM,0 to 25%,≤ 100 nM,≥ 75%
"O=C(c1cnn(C(=O)N2CC3CN(Cc4ccc(N5CCOCC5)cc4C(F)(F)F)CC3C2)c1)N1CCN(C2CC2)CC1 (centres unmarked) [Example 14, (4-cyclopropylpiperazin-1-yl)(1-(5-(4-morpholino-2-(trifluoromethyl)benzyl)octahydropyrrolo[3,4-c]pyrrole-2-carbonyl)-1H-pyrazol-4-yl)methanone]",1000 to 10000 nM,≥ 75%,100 to 1000 nM,≥ 75%
"O=C(c1cnn(C(=O)N2CCC3(CCN(Cc4cccc(C(F)(F)F)c4)C3)C2)c1)N1CCCC1 (centres unmarked) [Example 31, pyrrolidin-1-yl(1-(7-(3-(trifluoromethyl)benzyl)-2,7-diazaspiro[4.4]nonane-2-carbonyl)-1H-pyrazol-4-yl)methanone]",,≥ 75%,,25 to 50%
"CN(Cc1cccc(C(F)(F)F)c1)[C@H]1C[C@@H]2CN(C(=O)n3cc(Cl)cn3)C[C@@H]2C1 [Example 83, (4-chloro-1H-pyrazol-1-yl)(trans-5-(methyl(3-(trifluoromethyl)benzyl)amino)hexahydrocyclopenta[c]pyrrol-2(1H)-yl)methanone]",≤ 100 nM,≥ 75%,≤ 100 nM,≥ 75%

# The next lines start with the values.
IC50 (FAAH),inhibition at 1 µM (FAAH),IC50 (MAGL),inhibition at 1 µM (MAGL),SMILES
1000 to 10000 nM,≥ 75%,≤ 100 nM,≥ 75%,"O=C(N1CC2CN(Cc3ccc(Cl)cc3N3CCC4(CCOCC4)C3)CC2C1)n1cc(Cl)cn1 (centres unmarked) [Example 111, (4-chloro-1H-pyrazol-1-yl)(5-(4-chloro-2-(8-oxa-2-azaspiro[4.5]decan-2-yl)benzyl)hexahydropyrrolo[3,4-c]pyrrol-2(1H)-yl)methanone]"
,≥ 75%,,≥ 75%,"CN(Cc1ccc(-c2nccs2)cc1C(F)(F)F)[C@H]1C[C@@H]2CN(C(=O)n3cc(C(N)=O)cn3)C[C@@H]2C1 [Example 224, 1-(trans-5-(methyl(4-(thiazol-2-yl)-2-(trifluoromethyl)benzyl)amino)octahydrocyclopenta[c]pyrrole-2-carbonyl)-1H-pyrazole-4-carboxamide]"
≤ 100 nM,≥ 75%,100 to 1000 nM,≥ 75%,"O=C(N1CCC2(CCN(Cc3cccc(Cl)c3)C2)C1)n1cc(Cl)cn1 (single isomer, unassigned) [Example 132, (4-chloro-1H-pyrazol-1-yl)(7-(3-chlorobenzyl)-2,7-diazaspiro[4.4]nonan-2-yl)methanone]"
,≥ 75%,,≥ 75%,"NC(=O)c1cnn(C(=O)N2CCC3(CCN(Cc4ccc(N5CCOCC5)cc4Cl)C3)C2)c1 (centres unmarked) [Example 204, 1-(7-(2-chloro-4-morpholinobenzyl)-2,7-diazaspiro[4.4]nonane-2-carbonyl)-1H-pyrazole-4-carboxamide]"
≤ 100 nM,≥ 75%,≤ 100 nM,≥ 75%,"O=C(N1CC2CN(Cc3ccc(N4CCOCC4)cc3Cl)CC2C1)n1cc(Cl)cn1 (centres unmarked) [Example 126, (4-chloro-1H-pyrazol-1-yl)(5-(2-chloro-4-morpholinobenzyl)hexahydropyrrolo[3,4-c]pyrrol-2(1H)-yl)methanone]"
,≥ 75%,,≥ 75%,"CN(Cc1cc(C(F)(F)F)ccc1Cl)[C@H]1C[C@@H]2CN(C(=O)n3cc(C(N)=O)cn3)C[C@@H]2C1 [Example 214, 1-(trans-5-((2-chloro-5-(trifluoromethyl)benzyl)(methyl)amino)octahydrocyclopenta[c]pyrrole-2-carbonyl)-1H-pyrazole-4-carboxamide]"
,≥ 75%,,50 to 75%,"O=C(N1CCC2(CCN(Cc3ccccc3)C2)C1)n1cc(Cl)cn1 (centres unmarked) [Example 114, (7-benzyl-2,7-diazaspiro[4.4]nonan-2-yl)(4-chloro-1H-pyrazol-1-yl)methanone]"
,≥ 75%,,≥ 75%,"CN(Cc1cc(N2CCCC2)cc(C(F)(F)F)c1)[C@@H]1C[C@@H]2CN(C(=O)n3cc(C(N)=O)cn3)C[C@@H]2C1 [Example 222, 1-(cis-5-(methyl(3-(pyrrolidin-1-yl)-5-(trifluoromethyl)benzyl)amino)octahydrocyclopenta[c]pyrrole-2-carbonyl)-1H-pyrazole-4-carboxamide]"
≤ 100 nM,,100 to 1000 nM,,"O=C(N1CCC2(CCN(Cc3ccc(Cl)c(Cl)c3)C2)C1)n1cc(Cl)cn1 (single isomer, unassigned) [Example 139, (4-chloro-1H-pyrazol-1-yl)(7-(3,4-dichlorobenzyl)-2,7-diazaspiro[4.4]nonan-2-yl)methanone]"
,≥ 75%,,≥ 75%,"NC(=O)c1cnn(C(=O)N2CCC3(CCN(Cc4cc(N5CCCC5)cc(C(F)(F)F)c4)C3)C2)c1 (centres unmarked) [Example 211, 1-(7-(3-(pyrrolidin-1-yl)-5-(trifluoromethyl)benzyl)-2,7-diazaspiro[4.4]nonane-2-carbonyl)-1H-pyrazole-4-carboxamide]"
